# Assay results from patent publication US9271448B2, “Method for cultivating sugar cane” (BASF SE, priority 2010, dated 2016).
# Test system: sugar cane seedlings
# Assay: Growth of sugar cane seedlings treated in the greenhouse, then transplanted to the field
# Assay type: in vivo
# Excerpt: On an area of 0.1 hectares where sugar cane plants were growing with a distance between the rows of approximately 1.5 m, the top part of the 8 months old sugar cane plants was removed by chopping off with a machete in a height of approximately 2-2.5 m. The removed top part was discarded. After 30 days, on the below, remaining stalks, shoots (“1st generation”) had developed from the buds. The top parts (approximately 30 cm) of these shoots were removed by cutting. New shoots (“2nd generation”) developed from the cut shoots of the 1st generation. 30 days after cutting the top part of the 1st generation shoots, the 2nd generation shoots were removed by cutting them off closely to the nodes. On average, every node had produced three 2nd generation shoots. The removed 2nd generation shoots were each placed in pots filled with humid coconut fibers. The pots were placed in a greenhouse, and seedlings were grown from the planted shoots at 25-35° C. and 70-80% humidity. While in the greenhouse, the shoots/seedlings were watered sufficiently. One part of the seedlings was treated once with pyraclostrobin (in form of the commercial product Comet®; EC; 250 g/l) by immersing the entire tray containing the planted shoots for 10 min into a solution containing 4 ml of Comet® concentrate per l; i.e. 1 g pyraclostrobin per l. Another part of the seedlings remained untreated (control). 30 to 45 days after having been placed in the greenhouse, the surviving seedlings were transferred to an acclimatization area and kept for 15 days. Then they were counted and transplanted to a field. In sum 96,000 seedlings had been obtained. This number was sufficient for planting an area of 6.4 hectares with the same distance between the rows and the plants in the rows as in the originating field. […] 20 days after transplanting, the plant height of the treated and untreated plants was determined.
smiles,measurement,setting,value
COC(=O)N(OC)c1ccccc1COc1ccn(-c2ccc(Cl)cc2)n1 [pyraclostrobin],Plant height,"1 g a.i./l, planted shoots immersed once for 10 min, height determined 20 days after transplanting to the field",38.3 cm
same,colour and vigour of the seedlings / young plants,"treated once while in the greenhouse, 1 g pyraclostrobin per l, compared with untreated seedlings","more intense, greener color and were more vigorous"
same,increase in plant height,"versus untreated control, 1 g pyraclostrobin per l, 20 days after transplanting",more than 30%
